Results taken from US10660877B2 (BRISTOL-MYERS SQUIBB COMPANY, priority 2016, dated 2020).
Where two headings read alike, the source gives them in different places.

Columns and labels:
human TLR7 = human TLR7 (Homo sapiens (Human), UniProt Q9NYK1); assay: TLR7 inhibition reporter assay (HEK-Blue cells, SEAP reporter, gardiquimod stimulation); assay type: cell-based
human TLR8 = human TLR8 (Homo sapiens (Human), UniProt Q9NR97); assay: TLR8 inhibition reporter assay (HEK-Blue cells, SEAP reporter, R848 stimulation);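 also: compounds tested from 0.05 nM to 50 µM, 22 h at 37 °C, SEAP measured with HEK-Blue Detection, inhibition relative to agonist plus DMSO versus a known inhibitor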
human TLR9 = human TLR9 (Homo sapiens (Human), UniProt Q9NR96); assay: TLR9 inhibition reporter assay (HEK-Blue cells, SEAP reporter, ODN2006 stimulation);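 also: compounds tested over 0.05 nM to 50 µM, 22 h incubation, inhibition taken as SEAP signal drop from agonist plus DMSO wells toward a known inhibitor control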
[1] = HEK-Blue cells overexpressing human TLR7, gardiquimod 7.5 μM
[2] = read-out: TLR8 IC50, HEK-Blue cells overexpressing human TLR8, R848 15.9 μM
[3] = read-out: TLR9 IC50, HEK-Blue cells overexpressing human TLR9, ODN2006 5 nM
[4] = HEK-Blue cells, gardiquimod 7.5 μM
[5] = read-out: TLR8 IC50, HEK-Blue cells, R848 15.9 μM
[6] = read-out: TLR9 IC50, HEK-Blue cells, ODN2006 5 nM

human TLR7, sequence (Q9NYK1 27-1049): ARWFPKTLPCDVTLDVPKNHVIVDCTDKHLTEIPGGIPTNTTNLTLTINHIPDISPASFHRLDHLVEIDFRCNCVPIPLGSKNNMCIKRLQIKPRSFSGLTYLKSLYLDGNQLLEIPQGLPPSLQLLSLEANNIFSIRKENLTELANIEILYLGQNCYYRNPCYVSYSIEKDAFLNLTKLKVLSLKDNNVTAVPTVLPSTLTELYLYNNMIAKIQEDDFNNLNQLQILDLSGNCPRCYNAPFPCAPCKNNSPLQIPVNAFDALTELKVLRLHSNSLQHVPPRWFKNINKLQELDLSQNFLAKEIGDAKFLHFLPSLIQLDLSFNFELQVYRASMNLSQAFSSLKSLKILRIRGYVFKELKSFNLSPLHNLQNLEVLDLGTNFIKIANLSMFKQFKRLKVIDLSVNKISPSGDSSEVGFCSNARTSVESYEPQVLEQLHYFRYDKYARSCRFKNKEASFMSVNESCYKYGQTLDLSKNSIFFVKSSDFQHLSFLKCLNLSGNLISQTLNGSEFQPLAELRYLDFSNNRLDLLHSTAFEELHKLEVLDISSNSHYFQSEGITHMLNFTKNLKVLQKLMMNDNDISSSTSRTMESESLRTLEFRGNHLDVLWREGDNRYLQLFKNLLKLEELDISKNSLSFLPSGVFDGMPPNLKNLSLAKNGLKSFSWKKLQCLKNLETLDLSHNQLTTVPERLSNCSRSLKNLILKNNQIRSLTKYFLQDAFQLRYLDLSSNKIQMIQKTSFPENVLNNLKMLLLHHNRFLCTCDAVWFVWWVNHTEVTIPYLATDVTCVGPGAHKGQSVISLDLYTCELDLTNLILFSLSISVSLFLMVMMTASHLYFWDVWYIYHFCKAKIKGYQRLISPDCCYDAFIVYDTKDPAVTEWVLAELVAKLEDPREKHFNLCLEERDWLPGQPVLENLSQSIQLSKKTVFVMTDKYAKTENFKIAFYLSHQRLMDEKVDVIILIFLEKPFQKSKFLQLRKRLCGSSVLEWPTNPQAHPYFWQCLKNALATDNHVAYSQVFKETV
human TLR9, sequence (Q9NR96 26-1032): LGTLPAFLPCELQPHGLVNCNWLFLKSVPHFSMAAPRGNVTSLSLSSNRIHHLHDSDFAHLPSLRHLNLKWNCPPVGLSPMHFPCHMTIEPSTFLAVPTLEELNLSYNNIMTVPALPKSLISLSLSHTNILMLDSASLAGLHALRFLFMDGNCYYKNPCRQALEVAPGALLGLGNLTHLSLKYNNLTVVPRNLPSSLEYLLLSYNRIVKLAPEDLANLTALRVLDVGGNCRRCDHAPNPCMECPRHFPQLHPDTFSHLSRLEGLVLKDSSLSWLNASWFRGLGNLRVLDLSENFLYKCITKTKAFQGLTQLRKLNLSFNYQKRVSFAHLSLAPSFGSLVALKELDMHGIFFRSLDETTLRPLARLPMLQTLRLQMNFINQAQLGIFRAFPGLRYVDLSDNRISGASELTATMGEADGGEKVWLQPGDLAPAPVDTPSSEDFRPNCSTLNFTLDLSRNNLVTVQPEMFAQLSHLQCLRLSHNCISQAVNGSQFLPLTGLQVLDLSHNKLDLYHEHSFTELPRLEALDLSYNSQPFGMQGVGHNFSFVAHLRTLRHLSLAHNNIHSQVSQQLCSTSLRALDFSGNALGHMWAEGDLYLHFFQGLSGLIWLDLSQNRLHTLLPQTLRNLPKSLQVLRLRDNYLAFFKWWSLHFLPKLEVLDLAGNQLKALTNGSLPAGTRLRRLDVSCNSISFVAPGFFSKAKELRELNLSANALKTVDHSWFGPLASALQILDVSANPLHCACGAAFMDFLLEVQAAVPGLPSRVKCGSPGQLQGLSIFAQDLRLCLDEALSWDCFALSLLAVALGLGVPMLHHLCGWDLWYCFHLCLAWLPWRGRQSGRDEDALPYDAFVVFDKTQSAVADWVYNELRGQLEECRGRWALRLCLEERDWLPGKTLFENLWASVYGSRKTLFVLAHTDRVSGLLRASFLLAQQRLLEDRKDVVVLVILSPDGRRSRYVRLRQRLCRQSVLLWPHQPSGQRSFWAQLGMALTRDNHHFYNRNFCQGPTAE
human TLR8, sequence (Q9NR97 27-1041): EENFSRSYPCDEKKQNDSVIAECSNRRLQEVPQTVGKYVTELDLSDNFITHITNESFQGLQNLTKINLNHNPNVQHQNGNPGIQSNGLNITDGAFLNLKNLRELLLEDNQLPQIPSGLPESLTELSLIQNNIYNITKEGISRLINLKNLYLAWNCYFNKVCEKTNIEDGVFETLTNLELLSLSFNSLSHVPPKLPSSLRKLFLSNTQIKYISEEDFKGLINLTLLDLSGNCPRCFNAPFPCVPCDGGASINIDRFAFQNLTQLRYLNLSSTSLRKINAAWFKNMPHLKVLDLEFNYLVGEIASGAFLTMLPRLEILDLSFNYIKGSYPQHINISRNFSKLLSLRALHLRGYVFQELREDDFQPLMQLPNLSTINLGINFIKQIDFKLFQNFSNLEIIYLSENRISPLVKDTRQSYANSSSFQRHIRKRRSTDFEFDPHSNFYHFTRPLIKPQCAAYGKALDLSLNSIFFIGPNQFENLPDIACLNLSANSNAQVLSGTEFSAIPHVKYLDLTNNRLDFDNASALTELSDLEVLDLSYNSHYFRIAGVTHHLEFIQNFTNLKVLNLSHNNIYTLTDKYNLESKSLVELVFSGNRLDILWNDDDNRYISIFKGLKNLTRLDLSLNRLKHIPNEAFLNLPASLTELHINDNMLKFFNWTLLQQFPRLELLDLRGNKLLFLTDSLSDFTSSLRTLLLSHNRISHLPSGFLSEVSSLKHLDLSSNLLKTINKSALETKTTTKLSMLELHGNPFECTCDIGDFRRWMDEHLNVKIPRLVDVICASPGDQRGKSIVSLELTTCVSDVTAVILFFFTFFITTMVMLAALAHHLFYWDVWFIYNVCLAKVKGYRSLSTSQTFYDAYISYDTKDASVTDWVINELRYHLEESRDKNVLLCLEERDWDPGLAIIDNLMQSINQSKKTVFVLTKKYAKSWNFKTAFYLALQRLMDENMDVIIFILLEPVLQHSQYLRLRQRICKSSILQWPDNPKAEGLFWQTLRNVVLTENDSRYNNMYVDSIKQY

Row | Compound | IC50 (human TLR7; [1]) [µM] | IC50 (human TLR8; [2]) [µM] | IC50 (human TLR9; [3]) [µM] | IC50 (human TLR7; [4]) [µM] | IC50 (human TLR8; [5]) [µM] | IC50 (human TLR9; [6]) [µM] | IC50 (human TLR8; TLR8 IC50, HEK-Blue cells overexpressing human TLR8, R848 15.9 μM) [µM] | IC50 (human TLR9; TLR9 IC50, HEK-Blue cells overexpressing human TLR9, ODN2006 5 nM) [µM]
1 | Cc1cc(-c2[nH]c3ccc(C4CCN(CC5COC5)CC4)cc3c2C(C)C)c(F)cn1 [Example 646, 2-(5-fluoro-2-methylpyridin-4-yl)-3-isopropyl-5-(1-(oxetan-3-ylmethyl)piperidin-4-yl)-1H-indole] | 0.012 | 0.0048 | 5.85 | – | – | – | – | –
2 | Cc1cc(-c2[nH]c3ccc(C4CCN(C(=O)OC(C)C)CC4)cc3c2C(C)C)ccn1 [Example 559, isopropyl 4-(3-isopropyl-2-(2-methylpyridin-4-yl)-1H-indol-5-yl)piperidine-1-carboxylate] | 0.5 | 0.878 | 13.5 | – | – | – | – | –
3 | Cc1cc(-c2[nH]c3cc(F)c(C4CCN(CC(=O)N(C)C)CC4)cc3c2C(C)C)cc(C)n1 [Example 837, 2-(4-(2-(2,6-dimethylpyridin-4-yl)-6-fluoro-3-isopropyl-1H-indol-5-yl)piperidin-1-yl)-N,N-dimethylacetamide] | – | – | – | 0.0019 | 0.0114 | 0.194 | – | –
4 | Cc1cc(-c2[nH]c3ccc(C4CCN(CC(=O)N(C)C(C)(C)C)CC4)cc3c2C(C)C)cc(C)n1 [Example 250, N-(tert-butyl)-2-(4-(2-(2,6-dimethylpyridin-4-yl)-3-isopropyl-1H-indol-5-yl)piperidin-1-yl)-N-methylacetamide] | 0.0117 | 0.0364 | 1.2 | – | – | – | – | –
5 | Cc1nc(CN2CCC(c3ccc4[nH]c(-c5ccnc(C6CC6)c5)c(C(C)C)c4c3)CC2)c[nH]1 [Example 484, 2-(2-cyclopropylpyridin-4-yl)-3-isopropyl-5-(1-((2-methyl-1H-imidazol-4-yl)methyl)piperidin-4-yl)-1H-indole] | 0.0776 | 0.0963 | 0.279 | – | – | – | – | –
6 | Cc1cc(-c2[nH]c3cc(F)c(C4CCN(CC(=O)N(C)C)CC4)cc3c2C(C)C)c(C)cn1 [Example 835, 2-(4-(2-(2,5-dimethylpyridin-4-yl)-6-fluoro-3-isopropyl-1H-indol-5-yl)piperidin-1-yl)-N,N-dimethylacetamide] | – | – | – | 0.0029 | 0.0034 | 1.95 | – | –
7 | Cc1cc(-c2[nH]c3ccc(C4CCN(Cc5ncon5)CC4)cc3c2C(C)C)c(C)cn1 [Example 734, 3-((4-(2-(2,5-dimethylpyridin-4-yl)-3-isopropyl-1H-indol-5-yl)piperidin-1-yl)methyl)-1,2,4-oxadiazole] | 0.0138 | 0.0068 | 8.99 | – | – | – | – | –
8 | COc1cc(-c2[nH]c3ccc(C4CCN(C5CCN(CC(C)C)CC5)CC4)cc3c2C)ccn1 [Example 781, 5-(1′-isobutyl-[1,4′-bipiperidin]-4-yl)-2-(2-methoxypyridin-4-yl)-3-methyl-1H-indole] | 0.577 | 0.316 | 0.206 | – | – | – | – | –
9 | Cc1cc(-c2[nH]c3ccc(C4CCN(C(=O)C5CCOCC5)CC4)cc3c2C(C)C)ccn1 [Example 597, (4-(3-isopropyl-2-(2-methylpyridin-4-yl)-1H-indol-5-yl)piperidin-1-yl)(tetrahydro-2H-pyran-4-yl)methanone] | 0.0456 | 0.117 | 26.9 | – | – | – | – | –
10 | Cc1cc(-c2[nH]c3ccc(C4CCN(C(=O)c5c(C)nn(C)c5C)CC4)cc3c2C(C)C)cc(C)n1 [Example 131, (4-(2-(2,6-dimethylpyridin-4-yl)-3-isopropyl-1H-indol-5-yl)piperidin-1-yl)(1,3,5-trimethyl-1H-pyrazol-4-yl)methanone] | 0.012 | 0.0771 | 17.5 | – | – | – | – | –
11 | Cc1cc(-c2[nH]c3ccc(C4CCN(C5CCNCC5F)CC4)cc3c2C(C)C)ccn1 (stereo not drawn) [Example 705, 5-(3′-fluoro-[1,4′-bipiperidin]-4-yl)-3-isopropyl-2-(2-methylpyridin-4-yl)-1H-indole] | 0.0219 | 0.0062 | 0.708 | – | – | – | – | –
12 | CCc1c(-c2ccnc(OC)c2)[nH]c2ccc(C3CCN(C4CCN(C5CCCC5)CC4)CC3)cc12 [Example 785, 5-(1′-cyclopentyl-[1,4′-bipiperidin]-4-yl)-3-ethyl-2-(2-methoxypyridin-4-yl)-1H-indole] | 0.79 | 0.117 | 0.282 | – | – | – | – | –
13 | CCc1c(-c2ccnc(C)c2)[nH]c2ccc(C3CCN(C(=O)C4(C)CCNCC4)CC3)cc12 [Example 626, (4-(3-ethyl-2-(2-methylpyridin-4-yl)-1H-indol-5-yl)piperidin-1-yl)(4-methylpiperidin-4-yl)methanone] | 0.0626 | 0.0535 | 0.169 | – | – | – | – | –
14 | CCCCN(CCO)C(=O)CN1CCC(c2ccc3[nH]c(-c4cc(C)nc(C)c4)c(C(C)C)c3c2)CC1 [Example 298, N-butyl-2-(4-(2-(2,6-dimethylpyridin-4-yl)-3-isopropyl-1H-indol-5-yl)piperidin-1-yl)-N-(2-hydroxyethyl)acetamide] | 0.0256 | 0.1 | 2.67 | – | – | – | – | –

Continued, values first:

Row | IC50 (human TLR7; [1]) [µM] | IC50 (human TLR8; [2]) [µM] | IC50 (human TLR9; [3]) [µM] | IC50 (human TLR7; [4]) [µM] | IC50 (human TLR8; [5]) [µM] | IC50 (human TLR9; [6]) [µM] | IC50 (human TLR8; TLR8 IC50, HEK-Blue cells overexpressing human TLR8, R848 15.9 μM) [µM] | IC50 (human TLR9; TLR9 IC50, HEK-Blue cells overexpressing human TLR9, ODN2006 5 nM) [µM] | Compound
15 | 0.0111 | 0.0217 | 0.663 | – | – | – | – | – | Cc1cc(-c2[nH]c3ccc(C4CCN(C(=O)C5(C)CCN(C)CC5)CC4)cc3c2C(C)C)cc(C)n1 [Example 176, (1,4-dimethylpiperidin-4-yl)(4-(2-(2,6-dimethylpyridin-4-yl)-3-isopropyl-1H-indol-5-yl)piperidin-1-yl)methanone]
16 | 0.0047 | 0.0288 | 0.889 | – | – | – | – | – | COC[C@@H]1CCCN1CC(=O)N1CCC(c2ccc3[nH]c(-c4cc(C)nc(C)c4)c(C(C)C)c3c2)CC1 [Example 370, (S)-1-(4-(2-(2,6-dimethylpyridin-4-yl)-3-isopropyl-1H-indol-5-yl)piperidin-1-yl)-2-(2-(methoxymethyl)pyrrolidin-1-yl)ethan-1-one]
17 | 0.0057 | – | – | – | – | – | 0.0477 | 8.86 | Cc1cc(-c2[nH]c3ccc(C4CCN(C(=O)Cc5cc(N)n[nH]5)CC4)cc3c2C(C)C)cc(C)n1 [Example 139, 2-(3-amino-1H-pyrazol-5-yl)-1-(4-(2-(2,6-dimethylpyridin-4-yl)-3-isopropyl-1H-indol-5-yl)piperidin-1-yl)ethan-1-one]
18 | 0.0022 | 0.0098 | 0.348 | – | – | – | – | – | Cc1cc(-c2[nH]c3ccc(C4CCN(C(=O)CN5CCC[C@H]5CO)CC4)cc3c2C(C)C)cc(C)n1 [Example 381, (S)-1-(4-(2-(2,6-dimethylpyridin-4-yl)-3-isopropyl-1H-indol-5-yl)piperidin-1-yl)-2-(2-(hydroxymethyl)pyrrolidin-1-yl)ethan-1-one]
19 | 0.0056 | 0.0051 | 3.69 | – | – | – | – | – | Cc1cc(-c2[nH]c3ccc(C4CCN(C)CC4)cc3c2C(C)C)c(F)cn1 [Example 635, 2-(5-fluoro-2-methylpyridin-4-yl)-3-isopropyl-5-(1-methylpiperidin-4-yl)-1H-indole]
20 | 0.0096 | 0.0324 | 0.954 | – | – | – | – | – | Cc1cc(-c2[nH]c3ccc(C4CCN(CC(=O)N(C)CC(C)C)CC4)cc3c2C(C)C)cc(C)n1 [Example 245, 2-(4-(2-(2,6-dimethylpyridin-4-yl)-3-isopropyl-1H-indol-5-yl)piperidin-1-yl)-N-isobutyl-N-methylacetamide]
21 | 0.0017 | 0.0058 | 7.43 | – | – | – | – | – | Cc1cc(-c2[nH]c3ccc(C4CCN(CC(=O)N(C)C)CC4)cc3c2C(C)C)c(F)c(C)n1 [Example 645, 2-(4-(2-(3-fluoro-2,6-dimethylpyridin-4-yl)-3-isopropyl-1H-indol-5-yl)piperidin-1-yl)-N,N-dimethylacetamide]
